Measurements as given in publication PMC11091220, “Metabolism-driven in vitro/in vivo disconnect of an oral ERɑ VHL-PROTAC” (Communications Biology, 2024).
Values joined by “and” are separate entries in the source; they are usually repeats but may differ in a detail not shown here. Equal values may be shown once. Read-outs that look alike come from different tables or passages of the source.

What was measured:
[1] = Plasma protein binding (RED device), mouse plasma; format: in vitro ADME; conditions: for Mouse fup: fraction unbound in plasma; for Mouse fup, Free: fraction free
Protocol: Plasma protein binding was completed using a RED device. The test compound was prepared to 1 mM in 100% DMSO and further diluted in plasma to achieve a final compound concentration of 5 μM in the incubation. Phosphate buffered solution pH 7.4 (500 μL) was added to the receiver chamber of the RED device and spiked plasma (300 μL) was added to the donor chamber. The plate was covered with a gas-permeable lid and incubated for 18 h at 37 °C with 5% CO2 on an orbital shaker at 300 rpm. At the end of incubation, 50 μL of post-dialysis sample from the donor and receiver wells were aliquot into separate wells and matrix-matched with 50 μL of phosphate buffer solution pH 7.4 or blank plasma, respectively. The samples were subsequently quenched separately in 400 μL of ice-cold 100% acetonitrile. Quenched samples were shaken at 1000 rpm for 10 min and centrifuged for 30 min at 4000 rpm to pellet precipitated protein. The supernatant fraction was further diluted 1:1 with deionised water for analysis by LC MS/MS[17].

[2] = target: T1, recombinant human ERα ligand binding domain (LBD) (Homo sapiens, UniProt P03372); test: ERα binding assay (LanthaScreen TR-FRET competition); conditions: mean ± s.d.; read-out: ERα binding IC50
T1 construct: purchased Invitrogen PV4543
T1 sequence (P03372 311-547 limits assumed): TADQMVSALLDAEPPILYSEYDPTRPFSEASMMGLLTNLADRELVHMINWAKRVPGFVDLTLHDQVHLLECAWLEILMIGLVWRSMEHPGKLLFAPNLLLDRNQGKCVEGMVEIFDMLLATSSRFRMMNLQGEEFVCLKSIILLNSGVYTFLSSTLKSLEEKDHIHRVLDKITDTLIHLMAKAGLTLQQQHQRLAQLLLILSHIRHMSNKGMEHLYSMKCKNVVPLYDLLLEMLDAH
Protocol: The ability of compounds to bind to isolated ERα Ligand binding domain (ERα–LBD (GST)) was assessed in competition assays using a LanthaScreenTM Time-Resolved Fluorescence Resonance Energy Transfer (TR-FRET) detection end-point. For the LanthaScreen TR-FRET endpoint, a suitable fluorophore (Fluormone ES2, Product code P2645) and recombinant human ERα ligand binding domain (LBD) (product code PV4543) were purchased from Invitrogen and used to measure compound binding. A terbium-labelled anti-GST antibody (Product code PV3551) is used to indirectly label the receptor by binding to its GST tag, and competitive binding is detected by a test compounds’ ability to displace the fluorescent ligand resulting in a loss of TR-FRET signal between the Tb-anti-GST antibody and the tracer. The assay was performed with all reagent additions carried out using the Beckman Coulter BioRAPTR FRD microfluidic workstation: […]

ERα = target: T2, ERα (Homo sapiens, UniProt P03372); test: ERα high throughput imaging degradation assay in MCF7 cells; format: cell-based; conditions: for Dmax: MCF7; for DC50: MCF7 cells, 20 to 24 hours; for ERa degradation (% vs fulv): Figure 6e, individual replicates
T2 construct: endogenous in cells; host or cells: MCF7 (also MCF7 engineered to express Cas9)
T2 sequence (P03372 1-595): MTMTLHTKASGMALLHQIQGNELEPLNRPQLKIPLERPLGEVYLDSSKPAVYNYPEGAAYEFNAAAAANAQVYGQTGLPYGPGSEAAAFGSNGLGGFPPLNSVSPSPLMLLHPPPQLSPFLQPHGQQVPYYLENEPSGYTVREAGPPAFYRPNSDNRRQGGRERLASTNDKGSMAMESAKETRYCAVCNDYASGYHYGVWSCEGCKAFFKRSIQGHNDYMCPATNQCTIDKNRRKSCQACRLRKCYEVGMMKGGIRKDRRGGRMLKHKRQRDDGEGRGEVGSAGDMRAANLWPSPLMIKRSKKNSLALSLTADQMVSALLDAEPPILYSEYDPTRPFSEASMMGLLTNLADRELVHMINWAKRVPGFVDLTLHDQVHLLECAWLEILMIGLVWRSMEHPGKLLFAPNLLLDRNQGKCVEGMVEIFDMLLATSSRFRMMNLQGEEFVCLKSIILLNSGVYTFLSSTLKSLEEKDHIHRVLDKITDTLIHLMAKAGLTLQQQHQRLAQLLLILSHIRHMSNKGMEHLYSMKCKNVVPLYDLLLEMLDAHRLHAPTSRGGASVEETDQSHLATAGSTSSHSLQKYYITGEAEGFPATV
Protocol: Cells were fixed, permeabilised and stained with anti-ERα (rabbit clone SP1, Thermo) and anti-PR (mouse clone PgR 636, Dako) antibodies followed by secondary AlexaFluor 594 goat anti-rabbit and AlexaFluor 488 goat anti-mouse IgG antibodies. Imaging was using the Thermo Cellinsight scanner and average fluorescence intensity was analysed using Genedata.

Chromatographic LogD = format: physicochemical; conditions: Waters Acquity BEH C18 column, pH 7.4
Protocol: An HPLC with UV detection using diode array detection over a wavelength range of 210-320 nm and confirmation by electrospray mass spectrometry (pos/neg ionisation) is used to determine the chromatographic LogD of compounds. Test compounds, calibrants, and QC samples are prepared as 10 mM stocks in DMSO and further diluted to a final concentration of 0.6 mM in DMSO. […] The chromatographic system is calibrated using standards with known literature values of octanol-water partition coefficient at pH 7.4 (logD7.4) and retention factors, k’, of calibrants, QCs, and samples calculated using equation: k’=(rt-t0)/t0.

[3] = reverse-phase HPLC, read-out: chrom LogD
[4] = reversed-phase HPLC, Table 2 source data, read-out: ChromLogD

Cc1ncsc1-c1ccc(CNC(=O)[C@@H]2C[C@@H](O)CN2C(=O)[C@@H](NC(=O)COCCCOCCCOc2cc(F)c([C@@H]3c4[nH]c5ccccc5c4C[C@@H](C)N3CC(C)(C)F)c(F)c2)C(C)(C)C)cc1 [Compound 5]
free in mouse plasma [1]: 0.02% | Mouse fup [1]: 0.0002 (1) | Mouse fup, Free ([1]; mouse plasma): 0.0002 | IC50 [2]: < 0.6 nM | Degradation vs fulvestrant (ERα; Log M -7.0, listed as AZ'6421): 101.3% and 100.0% and 100.9% and 100.7% and 96.8% and 100.1% and 99.4% and 99.7% | Dmax (ERα; MCF7, read-out: ERα imaging Dmax, 0% vehicle control, 100% fulvestrant): 100 ± 1% | DC50 (ERα): 0.4 ± 0.1 nM | ERa degradation (% vs fulv) (ERα; log[compound] (M) -6.52, listed as AZ'6421): 99.33% and 99.93% and 101.36% and 100.78% and 99.17% and 100.53% and 100.63% and 100.07% and 100.14% and 100.02% | ERa degradation (% vs fulv) (ERα; log[compound] (M) -7.00, listed as AZ'6421): 101.32% and 100.02% and 100.91% and 100.71% and 100.90% and 96.75% and 100.07% and 99.39% and 100.12% and 99.67% | ERa degradation (% vs fulv) (ERα; log[compound] (M) -7.51, listed as AZ'6421): 100.79% and 99.35% and 100.85% and 99.32% and 100.51% and 92.08% and 99.13% and 99.41% and 100.03% and 98.51% | ERa degradation (% vs fulv) (ERα; log[compound] (M) -9.00, listed as AZ'6421): 93.78% and 65.44% and 89.78% and 70.27% and 72.25% and 75.33% and 76.06% and 75.57% and 73.41% and 66.07% | ERa degradation (% vs fulv) (ERα; log[compound] (M) -9.51, listed as AZ'6421): 66.11% and 33.08% and 64.57% and 26.47% and 39.19% and 41.32% and 37.58% and 27.55% and 33.68% and 36.35% | ERa degradation (% vs fulv) (ERα; log[compound] (M) -9.90, listed as AZ'6421): 38.07% and 5.08% and 43.62% and 16.97% and 24.51% and 17.96% and 13.58% and 13.52% and 2.56% and 2.84% | ERa degradation (% vs fulv) (ERα; log[compound] (M) -10.51, listed as AZ'6421): 17.15% and -10.39% and 19.63% and 15.57% and 7.27% and 25.30% and 2.21% and -11.02% and -6.17% and -0.64% | ERa degradation (% vs fulv) (ERα; log[compound] (M) -10.90, listed as AZ'6421): 22.79% and -6.31% and 31.83% and 8.09% and 2.16% and 2.02% and 3.46% and -2.88% and 3.42% and 4.13% | ERa degradation (% vs fulv) (ERα; log[compound] (M) -11.51, listed as AZ'6421): 16.49% and -4.42% and 21.83% and -8.62% and -7.44% and -0.35% and 7.90% and 8.64% and 8.25% and -5.38% | ERa degradation (% vs fulv) (ERα; log[compound] (M) -12.51, listed as AZ'6421): 22.96% and -5.76% and 24.26% and -2.82% and -3.01% and -3.46% and -11.46% and 15.61% and -2.65% and -10.83% | chromatographic logD (Chromatographic LogD; [3]): 6.6 ± 0.4 | chromatographic logD (Chromatographic LogD; [4]): 6.6

C[C@@H]1Cc2c([nH]c3ccccc23)[C@@H](c2c(F)cc(OCCC(=O)O)cc2F)N1CC(C)(C)F [Compound 8]
free in mouse plasma [1]: 0.5% | Mouse fup [1]: 0.005 (1) | difference in the free levels vs AZ’6421 ([1]; mouse plasma): 25 fold | Mouse fup, Free ([1]; mouse plasma): 0.005 | IC50 [2]: < 0.5 nM | Dmax (ERα; 0% vehicle control, 100% fulvestrant, read-out: ERα imaging Dmax): 86 ± 4% | DC50 (ERα): 0.5 ± 0.1 nM | ERa degradation (% vs fulv) (ERα; log[compound] (M) -6.52): 86.16% and 85.41% and 90.14% and 89.92% and 86.68% and 83.66% and 85.58% and 80.53% | ERa degradation (% vs fulv) (ERα; log[compound] (M) -7.00): 65.22% and 84.95% and 90.84% and 90.97% and 84.15% and 85.62% and 84.72% and 83.12% | ERa degradation (% vs fulv) (ERα; log[compound] (M) -7.51): 87.11% and 87.02% and 90.35% and 91.70% and 85.51% and 86.15% and 84.84% and 84.81% | ERa degradation (% vs fulv) (ERα; log[compound] (M) -7.90): 81.45% and 85.48% and 90.59% and 86.35% and 80.42% and 79.30% and 79.15% and 77.88% | ERa degradation (% vs fulv) (ERα; log[compound] (M) -8.52): 80.28% and 76.86% and 80.57% and 81.16% and 72.31% and 67.13% and 75.58% and 76.43% | ERa degradation (% vs fulv) (ERα; log[compound] (M) -9.00): 64.37% and 61.04% and 63.02% and 63.61% and 52.14% and 45.07% and 64.32% and 69.99% | ERa degradation (% vs fulv) (ERα; log[compound] (M) -9.51): 21.08% and 35.46% and 24.68% and 25.02% and 22.82% and 21.75% and 38.96% and 36.82% | ERa degradation (% vs fulv) (ERα; log[compound] (M) -9.90): 20.56% and 6.22% and 6.66% and 18.09% and -5.08% and 24.12% and -6.47% and -3.82% | ERa degradation (% vs fulv) (ERα; log[compound] (M) -10.51): -1.75% and -2.12% and 13.25% and 9.62% and 10.07% and 23.66% and -5.98% and -1.61% | ERa degradation (% vs fulv) (ERα; log[compound] (M) -10.90): -0.94% and -3.29% and -5.11% and -4.81% and 28.56% and 0.42% and 1.50% and -12.94% | ERa degradation (% vs fulv) (ERα; log[compound] (M) -11.51): 5.64% and 1.40% and -9.86% and -6.66% and -0.74% and -8.00% and -7.44% and -13.98% | ERa degradation (% vs fulv) (ERα; log[compound] (M) -12.51): -13.89% and 2.41% and -4.59% and -2.38% and -17.18% and -3.64% and -7.40% and -8.33% | chromatographic logD (Chromatographic LogD; [3]): 3.8 | chromatographic logD (Chromatographic LogD; [4]): 3.8
